Measurements: patent US20070037179A1, “Methods of diagnosing and prognosticating solid tumors and melanoma” (priority 2004, published 2007)

What was measured:
A3 adenosine receptors [1] = biological target: T1, A3 adenosine receptors (Homo sapiens, UniProt P0DMS8); test: [3H]MRE 3008F20 saturation binding to colonic membranes; set-up: Colon cancer tissues and related mucosa were homogenized in PBS buffer with a Polytron (Kinematica) and centrifuged; from tissue; host or cells: surgical specimens of human colorectal carcinoma, adenoma and adjacent/remote normal colonic mucosa
T1 sequence (P0DMS8 1-318): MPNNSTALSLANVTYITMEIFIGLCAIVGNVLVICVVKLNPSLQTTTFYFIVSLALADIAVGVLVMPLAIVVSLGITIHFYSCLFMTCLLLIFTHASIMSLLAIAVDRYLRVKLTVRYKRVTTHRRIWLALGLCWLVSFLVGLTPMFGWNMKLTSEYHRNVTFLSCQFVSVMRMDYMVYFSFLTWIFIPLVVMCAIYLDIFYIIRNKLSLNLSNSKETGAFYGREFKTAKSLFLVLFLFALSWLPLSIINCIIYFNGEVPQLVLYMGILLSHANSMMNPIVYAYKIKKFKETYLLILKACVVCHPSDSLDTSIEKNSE
Method: PREPARATION OF COLONIC MEMBRANE SUSPENSIONS. Colon cancer tissues and related mucosa were homogenized in PBS buffer with a Polytron (Kinematica) and centrifuged for 15 min at 48,000 g. The membrane pellet was resuspended in 50 mM Tris/HCl buffer pH 7.4 (50 mM Tris/HCl, 10 mM MgCl2, 1 mM EDTA) and incubated with 3 IU/ml of adenosine deaminase for 30 min at 37° C. This suspension was used for binding experiments.
(§1) Non-specific binding was determined in the presence of 1 μM MRE 3008F20. Bound and free radioactivity were separated, after an incubation time of 120 min at 4° C., by filtering the assay mixture using a Brandel cell harvester. The protein concentration was determined according to a Bio Rad method (26). Binding to A1 and A2A adenosine receptors was performed using [^3H]1,3-dipropyl-8-cyclopentyl-xanthine ([^3H]DPCPX) and [^3H]4-(2-[7-amino-2-(2-furyl)-[1,2,4]triazolo-[2,32][1,3,6]triazinyl-amino]ethyl)-phenol ([^3H]ZM 241385), respectively, as previously described (16, 24).
(§2) Data and statistical analysis. A weighted nonlinear least squares curve fitting program, LIGAND was used for computer analysis of the data from saturation experiments (28). Significant differences between control and patients with colorectal cancer were assessed using Student's t-test or analysis of variance (ANOVA) and the Dunnett's test when required. P<0.05 was considered significant. All data are reported as means±SEM.

A3 adenosine receptors [2] = biological target: T1, A3 adenosine receptors; test: [3H]MRE 3008F20 saturation binding to membranes of peripheral blood lymphocytes and neutrophils; set-up: endogenous in cells; host or cells: neutrophils and lymphocytes from peripheral venous blood of colorectal cancer patients and healthy volunteers; conditions: N=3
Method: as §1, §2

Bmax (A3 adenosine receptors [1]; adjacent normal (AN) mucosa, 2 cm from tumor): 295±20 fmol/mg of protein
Bmax (A3 adenosine receptors [1]; colonic membranes from 14 patients operated for non-neoplastic large bowel disease): 163±10 fmol/mg of protein
Bmax (A3 adenosine receptors [1]; large adenomas with high-grade dysplasia, N=4): 302±15 fmol/mg of protein
Bmax (A3 adenosine receptors [1]; remote normal (RN) mucosa, 10 cm from tumor): 196±10 fmol/mg of protein
Bmax (A3 adenosine receptors [1]; small adenomas with low-grade dysplasia, N=4): 155±24 fmol/mg of protein
Bmax (A3 adenosine receptors [1]; tumor tissues, 73 primary colorectal carcinomas, mean±SEM): 584±35 fmol/mg of protein
Bmax (A3 adenosine receptors [2]; lymphocytes of patients with small adenomas): 106±15 fmol/mg of protein
Bmax (A3 adenosine receptors [2]; neutrophils of patients with small adenomas): 547±77 fmol/mg of protein
SMILES: CCCn1cc2c(nc(NC(=O)Nc3ccc(OC)cc3)n3nc(-c4ccco4)nc23)n1 [[^3H]MRE 3008F20, 5-N-(4-methoxyphenyl-carbamoyl)amino-8-propyl-2(2furyl)-pyrazolo-[4,3 e]-1,2,4-triazolo [1,5-c]pyrimidine]
